Data on 16 compounds can be found in patent US20110177105A1, “Novel Selective Inhibitors of Ubiquitin Specific Protease 7, the Pharmaceutical Compositions Thereof and Their Therapeutic Applications” (priority 2010, published 2011).

Some results are limits rather than exact numbers.

The target in the first assay is USP7 (Homo sapiens, UniProt Q93009). As to the kind of experiment: HA-Ub-VS labeling of active DUBs in HCT116 cell lysates. The assay is classed as biochemical. Also noted: endogenous in cells; host or cells: HCT116 (inducible USP7 shRNA line) cell lysate. As to conditions: different doses (100 μM to 3 μM). An excerpt: The C-terminally modified vinyl sulfone derivative of ubiquitin, UbVS, was clearly helpful for a direct visualization of active DUBs in cells. This tool, which binds covalently to the cysteine active site of deubiquitinating enzymes, was successfully applied to discover and characterize novel ubiquitin/ubiquitin-like proteases and to profile active deubiquitinating enzymes in normal, virus-infected, and malignant cells (Borodovsky et al., Chem Biol 2002, 9, 1149-1159, Hemelaar et al., Mol Cell Biol 2004, 24, 84-95, Ovaa et al., Proc Natl Acad Sci USA 2004 101, 2253-2258).
Sequence of USP7 (Q93009 whole entry): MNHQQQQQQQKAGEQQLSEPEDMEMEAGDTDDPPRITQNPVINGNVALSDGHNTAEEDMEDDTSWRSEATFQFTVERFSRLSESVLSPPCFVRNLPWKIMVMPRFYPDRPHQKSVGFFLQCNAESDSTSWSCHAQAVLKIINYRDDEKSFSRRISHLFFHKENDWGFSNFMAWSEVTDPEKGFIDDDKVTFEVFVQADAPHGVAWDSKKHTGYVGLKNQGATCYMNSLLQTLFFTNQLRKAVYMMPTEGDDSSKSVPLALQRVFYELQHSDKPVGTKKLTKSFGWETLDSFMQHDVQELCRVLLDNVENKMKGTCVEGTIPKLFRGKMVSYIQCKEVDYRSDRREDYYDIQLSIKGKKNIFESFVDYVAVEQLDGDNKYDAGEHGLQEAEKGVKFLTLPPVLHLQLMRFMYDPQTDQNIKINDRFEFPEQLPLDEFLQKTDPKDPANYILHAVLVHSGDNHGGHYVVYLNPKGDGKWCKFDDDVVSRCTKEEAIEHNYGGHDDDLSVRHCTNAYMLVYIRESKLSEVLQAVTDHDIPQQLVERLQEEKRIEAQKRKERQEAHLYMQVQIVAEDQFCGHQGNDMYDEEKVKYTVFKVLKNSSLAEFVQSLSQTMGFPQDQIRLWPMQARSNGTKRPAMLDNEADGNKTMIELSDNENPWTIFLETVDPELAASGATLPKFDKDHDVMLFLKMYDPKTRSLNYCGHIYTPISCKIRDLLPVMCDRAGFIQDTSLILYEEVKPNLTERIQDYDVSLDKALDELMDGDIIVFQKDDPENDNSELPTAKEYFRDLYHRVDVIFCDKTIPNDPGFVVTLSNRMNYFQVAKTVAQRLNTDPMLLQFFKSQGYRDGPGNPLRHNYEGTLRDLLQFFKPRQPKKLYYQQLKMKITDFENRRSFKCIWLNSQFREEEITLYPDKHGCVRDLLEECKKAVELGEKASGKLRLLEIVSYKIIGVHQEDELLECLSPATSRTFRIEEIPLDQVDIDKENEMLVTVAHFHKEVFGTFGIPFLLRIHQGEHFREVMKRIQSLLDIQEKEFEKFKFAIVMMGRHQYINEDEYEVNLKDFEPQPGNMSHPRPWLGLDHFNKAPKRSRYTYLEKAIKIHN
The HA-Ub-VS probe (Hemagglutin tag-Ubiquitin-Vinyl Sulfone) was used in this study to directly visualize the activity of all deubiquitinating enzymes from cell lysates. This tool was used to evaluate the activity/specificity of our small molecule compounds on USP7 relative to all deubiquitinating enzymes active in physiological conditions.
Inducible USP7 shRNA HCT116 cells (previously treated with or without Doxycycline (2 μg/ml) for 4 days) as well as HEK293 cells were harvested and lysed on ice with a non denaturating buffer containing Tris pH 7.4, 50 mM; NaCl, 150 mM; MgCl2, 5 mM; EDTA, 0.5 mM; DTT, 2 mM; ATP, 2 mM; NP40, 0.5% and glycerol, 10%. Samples were incubated at 4° C. for 1 hour and clarified. Proteins were then quantified by Bradford method (Bio-Rad Protein Assay). 25 μg of proteins from native cell lysates were treated with compounds of examples 14 and 5 (from 100 μM to 3 μM) or with NEM (N-Ethylmaleimide, a thiol-reactive compound, 5 mM) for 2 hours at room temperature. The ubiquitin labeling reaction was initiated by the addition of HA-Ub-VS (8 μg/ml) in labeling buffer (Tris pH 7.6, 50 mM; MgCl2, 5 mM; EDTA, 0.5 mM; DTT, 2 mM; ATP, 2 mM; sucrose, 250 mM) and incubated at room temperature for 30 min. Samples were next heated at 100° C. for 10 minutes and briefly sonicated. They were resolved by SDS-polyacrylamide gel electrophoresis (SDS-PAGE), transferred to a nitrocellulose membrane and probed with antibodies against USP7 (Bethyl Lab, A300-034A), HA (BabCO, MMS-101P), and actin (Sigma, A2066). Horseradish peroxidase (HRP)-conjugated anti-mouse (Jackson Laboratories, 115-035-003) or HRP-conjugated anti-rabbit (Cell Signaling, 7074) antibodies were used as secondary antibodies. Signals were detected by enhanced chemiluminescence (ECL; Amersham) according to the reagent manufacturer's instructions.
As to `CCN(CCCNC(=O)c1ccc2c(Cl)c3c(nc2c1)CCCC3)Cc1ccccc1` [Example 5, 9-Chloro-5,6,7,8-tetrahydro-acridine-3-carboxylic acid [3-(benzyl-ethyl-amino)-propyl]-amide], the HA-Ub-VS-USP7 protein level entry is “specific and dose-dependent decrease”.

For the compound `CN(CCCNC(=O)c1ccc2c(Cl)c3c(nc2c1)CCCC3)Cc1ccccc1` [Example 14, 9-Chloro-5,6,7,8-tetrahydro-acridine-3-carboxylic acid [3-(benzyl-methyl-amino)-propyl]-amide], the HA-Ub-VS-USP7 protein level result was “specific and dose-dependent decrease”.

Still in this assay, the particulars now being: fixed dose 50 μM, anti-HA immunoblot.
Regarding `CN(CCCNC(=O)c1ccc2c(Cl)c3c(nc2c1)CCCC3)Cc1ccccc1` [Example 14, 9-Chloro-5,6,7,8-tetrahydro-acridine-3-carboxylic acid [3-(benzyl-methyl-amino)-propyl]-amide], the “HA-Ub-VS labeled DUB bands after treatment (HA-Ub-VS-USP7 band)” value is reported as “only one band was decreased”.

For another assay, the target named is T1, UCH-L1 (Homo sapiens, UniProt P09936).
T1 sequence (P09936 1-223): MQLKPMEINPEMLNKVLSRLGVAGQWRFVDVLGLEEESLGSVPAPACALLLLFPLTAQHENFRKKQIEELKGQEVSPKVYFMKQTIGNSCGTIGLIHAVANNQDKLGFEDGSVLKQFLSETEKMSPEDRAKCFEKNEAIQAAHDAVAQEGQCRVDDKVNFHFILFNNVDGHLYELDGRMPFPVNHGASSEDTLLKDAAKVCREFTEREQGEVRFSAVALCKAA
As to the kind of experiment: UCH-L1 activity assay (Ub-AMC). The assay is classed as biochemical. As to conditions: 300 nM Ub-AMC, 2.5 nM enzyme. The procedure:
UCH-L1 was diluted in USP buffer (50 mM Tris HCl; 0.5 mM EDTA; 5 mM DTT; 0.01% Triton X-100; Bovine Serum Albumin 0.05 mg·ml^−1 pH 7.6). Compounds stocks (100 mM) were stored at −20° C. in DMSO. Compounds were tested at different concentrations: from 200 μM to 91 nM.
Reactions were performed as duplicates in Black 384 well plates (small volume microplates; Greiner; 10 μl final reaction volume). The substrate concentration for UCH-L1 was 300 nM Ub-AMC (Boston Biochem). The concentration of the enzyme (UCH-L1) in specificity assays was 2.5 nM. The concentrations were determined in order to perform specificity assays under initial velocities at fixed substrate concentration. Compounds were pre-incubated with enzymes for 30 minutes at 25° C. Reactions were initiated by addition of substrate to the plates containing the enzymes (+/−compounds) diluted in assay buffer. Reactions were incubated for 60 minutes at 37° C. Reactions were stopped by adding acetic acid (100 mM final). Readings were performed on a Pherastar Fluorescent Reader (BMG). λ Emission 380 nm; λ Excitation=460 nm. Data (mean values+/−standard deviation) were analyzed as % of control (no compound) and plotted as percentage versus the Log of the compound concentration using GraphPad (Prism). Data were fitted to a sigmoidal model (variable slope).
As a reminder, the IC50 is the concentration that inhibits the measured activity by half. Higher therefore signals weaker potency. The compound `Cc1cccc(CN2CCC(CNC(=O)c3ccc4c(Cl)c5c(nc4c3)CCCC5)CC2)c1` [Example 1, 9-Chloro-5,6,7,8-tetrahydro-acridine-3-carboxylic acid [1-(3-methyl-benzyl)-piperidin-4-ylmethyl]-amide] yielded an IC50 of over 200 µM.

In the case of `CCN1CCCC1CNC(=O)c1ccc2c(Cl)c3c(nc2c1)CCCC3` (stereo not shown) [Example 2, 9-Chloro-5,6,7,8-tetrahydro-acridine-3-carboxylic acid (1-ethyl-pyrrolidin-2-ylmethyl)-amide], the IC50 is over 200 µM.

`CCCN(CCC)CCNC(=O)c1ccc2c(Cl)c3c(nc2c1)CCCC3` [Example 3, 9-Chloro-5,6,7,8-tetrahydro-acridine-3-carboxylic acid (2-dipropylamino-ethyl)-amide] came in with an IC50 of over 200 µM.

Take `CCCCN(CC)CCNC(=O)c1ccc2c(Cl)c3c(nc2c1)CCCC3` [Example 4, 9-Chloro-5,6,7,8-tetrahydro-acridine-3-carboxylic acid [2-(butyl-ethyl-amino)-ethyl]-amide]: the IC50 was over 200 µM.

Take `CCN(CCCNC(=O)c1ccc2c(Cl)c3c(nc2c1)CCCC3)Cc1ccccc1` [Example 5, 9-Chloro-5,6,7,8-tetrahydro-acridine-3-carboxylic acid [3-(benzyl-ethyl-amino)-propyl]-amide]: the IC50 was over 200 µM.

The compound `CCCN(CCC)CCCNC(=O)c1ccc2c(Cl)c3c(nc2c1)CCCC3` [Example 6, 9-Chloro-5,6,7,8-tetrahydro-acridine-3-carboxylic acid (3-dipropylamino-propyl)-amide] displayed an IC50 of over 200 µM.

For the compound `CCN(CC)CCNC(=O)c1ccc2c(Cl)c3c(nc2c1)CCCC3` [Example 7, 9-Chloro-5,6,7,8-tetrahydro-acridine-3-carboxylic acid (2-diethylamino-ethyl)-amide], the half-inhibitory concentration (IC50) was over 200 µM.

On to `O=C(NCCCN1CCCC1)c1ccc2c(Cl)c3c(nc2c1)CCCC3` [Example 8, 9-Chloro-5,6,7,8-tetrahydro-acridine-3-carboxylic acid (3-pyrrolidin-1-yl-propyl)-amide], for which the IC50 was over 200 µM.

In turn, `CC1CCCC(C)N1CCCNC(=O)c1ccc2c(Cl)c3c(nc2c1)CCCC3` (stereo not shown) [Example 9, 9-Chloro-5,6,7,8-tetrahydro-acridine-3-carboxylic acid [3-(2,6-dimethyl-piperidin-1-yl)-propyl]-amide] came in with an IC50 of over 200 µM.

With `CCN(CC)CCCNC(=O)c1ccc2c(Cl)c3c(nc2c1)CCCC3` [Example 10, 9-Chloro-5,6,7,8-tetrahydro-acridine-3-carboxylic acid (3-diethylamino-propyl)-amide], the IC50 was over 200 µM.

Compound `CN(C)CCNC(=O)c1ccc2c(Cl)c3c(nc2c1)CCCC3` [Example 11, 9-Chloro-5,6,7,8-tetrahydro-acridine-3-carboxylic acid (2-dimethylamino-ethyl)-amide] returned an IC50 of over 200 µM.

Compound `O=C(c1ccc2c(Cl)c3c(nc2c1)CCCC3)N1CCCCCC1` [Example 12, Azepan-1-yl-(9-chloro-5,6,7,8-tetrahydro-acridin-3-yl)-methanone] returned an IC50 of over 200 µM.

With `CCCN1CCN(CCCNC(=O)c2ccc3c(Cl)c4c(nc3c2)CCCC4)CC1` [Example 13, 9-Chloro-5,6,7,8-tetrahydro-acridine-3-carboxylic acid [3-(4-propyl-piperazin-1-yl)-propyl]-amide], the IC50 was over 200 µM.

The compound `CN(CCCNC(=O)c1ccc2c(Cl)c3c(nc2c1)CCCC3)Cc1ccccc1` [Example 14, 9-Chloro-5,6,7,8-tetrahydro-acridine-3-carboxylic acid [3-(benzyl-methyl-amino)-propyl]-amide] came in with an IC50 of over 200 µM.

Consider `CN1CCN(CCCNC(=O)c2ccc3c(Cl)c4c(nc3c2)CCCC4)CC1` [Example 15, 9-Chloro-5,6,7,8-tetrahydro-acridine-3-carboxylic acid [3-(4-methyl-piperazin-1-yl)-propyl]-amide], for which the IC50 was over 200 µM.

In turn, `O=C(c1ccc2c(Cl)c3c(nc2c1)CCCC3)N1CCC(N2CCCCC2)CC1` [Example 16, [1,4′]Bipiperidinyl-1′-yl-(9-chloro-5,6,7,8-tetrahydro-acridin-3-yl)-methanone] returned an IC50 of over 200 µM.
